Here are results for one compound from patent publication US7776899B2, “Methods for treatment of erectile dysfunction” (Repros Therapeutics Inc., priority 1998, dated 2010).

Structures can show the parent of a compound that is named as a salt.

The conditions of data set [1]: pH 7.48.
Method: (§1) A 0.1 N solution of NaOH was used to adjust the pH to the indicated values. These solutions were shaken for about 10 minutes then held at room temperature overnight in order to allow maximum dissolution of drugs in the buffer. […] HPLC was performed using a C18 column having a mobile phase of buffer (5 mM NaH2PO4 and 5 mM octane sulfonic acid, pH 3) in 30% acetonitrile with a flow rate of 1.5 ml/minute. The detection wavelength was 210 nm.
A further data set in a line: physchem. The settings on record: thermodynamic from solid.

Method for physchem: as §1

For the compound `COc1ccc(Cc2nccc3cc(OC)c(OC)cc23)cc1OC` [Papaverine, papaverine hydrochloride], the “In Solution (solubility in mixture)” value in data set [1] was determined as 0.17 mg/mL. For the same compound, the solubility is 36800 µg/mL in “physchem” (pH 3.91, aqueous buffer, In Solution (solubility in mixture)); around 36800 µg/mL in the data set “physchem” (pH 3.91, aqueous buffer, solubility); 7750 µg/mL in the data set “physchem” (pH 4.35, aqueous buffer, In Solution (solubility in mixture)); 700 µg/mL in “physchem” (pH 5.04, aqueous buffer, In Solution (solubility in mixture)); around 200 µg/mL in “physchem” (pH 7.48, aqueous buffer, In Solution (solubility in mixture)); 200 µg/mL in the data set “physchem” (pH 7.65, aqueous buffer, In Solution (solubility in mixture)).

For orientation: solubility means the dissolved amount per volume that the medium holds.
